This is an account of results in ChEMBL document CHEMBL4043216, “Design and synthesis of benzoacridines as estrogenic and anti-estrogenic agents” (Bioorg Med Chem, 2017).

For orientation: IC50 means the point on the concentration scale where inhibition reaches its midpoint. As usually defined, the EC50 is the concentration giving half of the maximal effect. A lower EC50 goes with higher potency in that assay.

One data set in a line: in vitro. The conditions noted are these: human.
The next data set deals with MCF7. The experiment in a line: cells. It is filed as functional, cell-based. The settings on record: Homo sapiens, MCF7, 144 h.
For data set [1], the target named is T1, Estrogen receptor (Homo sapiens, UniProt P03372).
T1 sequence (P03372 whole entry): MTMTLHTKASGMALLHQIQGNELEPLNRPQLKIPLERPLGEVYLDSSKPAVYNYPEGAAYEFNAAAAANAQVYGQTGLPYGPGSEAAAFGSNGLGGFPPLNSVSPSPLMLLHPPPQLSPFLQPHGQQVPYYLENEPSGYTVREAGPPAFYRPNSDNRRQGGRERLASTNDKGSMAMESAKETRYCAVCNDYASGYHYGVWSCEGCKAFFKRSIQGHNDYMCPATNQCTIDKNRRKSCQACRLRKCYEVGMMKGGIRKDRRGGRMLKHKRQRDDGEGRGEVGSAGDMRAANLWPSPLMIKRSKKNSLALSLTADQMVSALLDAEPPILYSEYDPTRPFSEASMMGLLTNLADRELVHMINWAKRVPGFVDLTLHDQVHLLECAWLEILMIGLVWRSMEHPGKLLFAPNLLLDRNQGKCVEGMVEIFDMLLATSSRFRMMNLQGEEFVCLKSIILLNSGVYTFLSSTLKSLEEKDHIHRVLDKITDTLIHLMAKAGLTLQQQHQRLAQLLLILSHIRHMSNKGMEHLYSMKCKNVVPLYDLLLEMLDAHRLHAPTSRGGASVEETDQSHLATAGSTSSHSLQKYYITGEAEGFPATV
Description: Displacement of [3H]E2 from GST-fused ERalpha-LBD (unknown origin) expressed in Escherichia coli BL21 incubated for 1 hr by liquid scintillation counting method

Data set [2] addresses T2, Estrogen receptor beta (Homo sapiens, UniProt Q92731).
Description: (§1) Displacement of [3H]E2 from GST-fused ERbeta-LBD (unknown origin) expressed in Escherichia coli BL21 incubated for 1 hr by liquid scintillation counting method
Data set [3] concerns the target T3, Estrogen-related receptor gamma (Homo sapiens, UniProt P62508).
T3 sequence (P62508 whole entry): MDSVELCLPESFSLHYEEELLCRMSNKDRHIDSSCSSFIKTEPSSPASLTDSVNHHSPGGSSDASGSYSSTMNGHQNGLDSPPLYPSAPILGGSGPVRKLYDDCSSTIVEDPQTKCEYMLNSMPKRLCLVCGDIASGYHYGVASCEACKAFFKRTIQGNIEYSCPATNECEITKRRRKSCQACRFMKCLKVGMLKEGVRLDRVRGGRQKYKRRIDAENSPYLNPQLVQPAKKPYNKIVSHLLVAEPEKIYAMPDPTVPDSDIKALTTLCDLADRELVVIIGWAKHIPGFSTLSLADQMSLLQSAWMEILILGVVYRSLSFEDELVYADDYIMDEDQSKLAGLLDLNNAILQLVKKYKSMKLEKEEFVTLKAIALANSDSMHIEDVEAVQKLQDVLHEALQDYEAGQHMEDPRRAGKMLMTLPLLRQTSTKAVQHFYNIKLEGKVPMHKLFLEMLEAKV
Description: Binding affinity to human ERRgamma

The target of data set [4] is T1, Estrogen receptor. This is another data set of the same source.
Description: Antagonist activity at full length ERalpha (unknown origin) expressed in human HeLa cells incubated for 24 hrs by ERE-driven luciferase reporter gene assay
The target of data set [5] is T2, Estrogen receptor beta. The source holds these as a separate data set.
Description: as §1
The target in data set [6] is T4, Estrogen receptor (Homo sapiens) (UniProt P03372).
T4 sequence (whole entry): T1 sequence (P03372 whole entry)
The experiment in a line: Antagonist activity at full length ERalpha (unknown origin) expressed in human HeLa cells up to 10 uM incubated for 24 hrs by ERE-driven luciferase reporter gene assay. It is filed as cell-based. On the technique in general: A reporter such as luciferase makes a cellular process visible.

The target of data set [7] is T1, Estrogen receptor. This is another data set of the same source.
Description: Agonist activity at full length ERalpha (unknown origin) expressed in human HeLa cells incubated for 24 hrs by ERE-driven luciferase reporter gene assay
For data set [8], the target named is T2, Estrogen receptor beta. The experiment in a line: Antagonist activity at full length ERbeta (unknown origin) expressed in human HeLa cells assessed as reduction in 17-beta estradiol-induced response at 10^-5M incubated for 24 hrs by ERE-driven luciferase reporter gene assay relative to untreated control. It is filed as cell-based.
The target in data set [9] is T2, Estrogen receptor beta. Kind of data set: Antagonist activity at full length ERbeta (unknown origin) expressed in human HeLa cells incubated for 24 hrs by ERE-driven luciferase reporter gene assay.

Structures are written as SMILES. Counter-ions that a name gives are not always drawn. Activity calls are given as the source filed them. No cut-off for these calls is given here. Bounds are passed on as bounds.

T2 sequence (Q92731 whole entry): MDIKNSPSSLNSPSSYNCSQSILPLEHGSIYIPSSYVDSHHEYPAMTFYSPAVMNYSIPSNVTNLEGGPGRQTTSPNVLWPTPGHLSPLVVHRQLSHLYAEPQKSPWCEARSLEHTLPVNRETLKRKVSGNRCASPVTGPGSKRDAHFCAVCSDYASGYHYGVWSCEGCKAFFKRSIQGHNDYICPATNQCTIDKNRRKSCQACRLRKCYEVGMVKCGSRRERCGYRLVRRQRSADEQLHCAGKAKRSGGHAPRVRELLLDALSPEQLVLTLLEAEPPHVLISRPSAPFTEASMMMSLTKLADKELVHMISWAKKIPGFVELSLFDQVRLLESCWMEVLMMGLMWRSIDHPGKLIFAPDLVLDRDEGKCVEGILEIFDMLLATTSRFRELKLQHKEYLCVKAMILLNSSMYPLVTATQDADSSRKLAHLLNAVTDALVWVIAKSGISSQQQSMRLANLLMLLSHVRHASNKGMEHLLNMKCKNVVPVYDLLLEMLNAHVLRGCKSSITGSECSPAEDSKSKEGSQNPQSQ
Description for MCF7: Inhibition of 17-beta estradiol-induced cell proliferation in human MCF7 cells incubated for 6 days by acid red-52 staining based assay
Description for in vitro: Cytotoxicity in human MCF7 cells assessed as maximum drug level not causing reduction in cell viability incubated for 6 days by acid red-52 staining based assay

Turning to `CC/C(=C(\c1ccccc1)c1ccc(OCCN(C)C)cc1)c1ccccc1` [TAMOXIFEN CITRATE], the MNTC at 144 h in the data set “in vitro” (mcf7) is above 10 µM.
As for `c1ccc(-c2c3ccccc3nc3nc4ccccc4cc23)cc1`, the midpoint of inhibition in the data set on MCF7, the IC50, lay at 951 nM.
Turning to `Cl.Clc1c2ccccc2cc2c(-c3ccccc3)c3ccccc3nc12`, the half-inhibitory concentration (IC50) in the data set on MCF7 was 9070 nM; against Estrogen receptor [1] it was 1680 nM; against Estrogen receptor beta [2] it was 2520 nM; in [3], “Not Active”. The same molecule registered an MNTC at 144 h in “in vitro” (MCF7 cells) above 10 µM.
The molecule `FC(F)(F)c1ccc2nc3cc4ccccc4cc3c(-c3ccccc3)c2c1` returned an MNTC at 144 h in the data set “in vitro” (MCF7 cells) above 10 µM.
`COc1ccc2c(-c3ccccc3)c3cc4ccccc4cc3nc2c1`: the MNTC at 144 h in “in vitro” (MCF7 cells) is above 1 µM.
`COc1ccc2c(-c3ccc(C(F)(F)F)cc3)c3cc4cc(C(F)(F)F)ccc4cc3nc2c1` gave an MNTC at 144 h in the data set “in vitro” (MCF7 cells) above 10 µM.
In the case of `Cl.FC(F)(F)c1ccc2cc3nc4ccccc4c(-c4ccccc4)c3cc2c1`, the IC50 was 9240 nM in the data set with MCF7; 3510 nM on Estrogen receptor [1]; 5340 nM against Estrogen receptor [4]; “Not Active” against Estrogen receptor beta [5]; “Not Active” in [3]. The same molecule yielded an MNTC at 144 h in “in vitro” (MCF7 cells) above 10 µM.
With `COc1cccc2c(-c3ccccc3)c3cc4ccccc4cc3nc12`, in the data set “in vitro” (MCF7 cells), the MNTC at 144 h is above 10 µM.
The molecule `FC(F)(F)c1ccc(-c2c3ccccc3nc3cc4ccc(C(F)(F)F)cc4cc23)cc1` gave a half-maximal inhibitory concentration (IC50) in the data set with MCF7 of 9240 nM. The MNTC at 144 h in “in vitro” (MCF7 cells) is above 10 µM.
`c1ccc(-c2c3ccccc3nc3ccccc23)cc1` registered an MNTC at 144 h in “in vitro” (MCF7 cells) above 100 µM.
Regarding `Cl.FC(F)(F)c1cccc2c(-c3ccccc3)c3cc4ccccc4cc3nc12`, the IC50 in the data set on MCF7 was 3980 nM; at Estrogen receptor [1], 2650 nM; against Estrogen receptor beta [5], “Not Active”; in data set [3], “Not Active”. Besides, the MNTC at 144 h in “in vitro” (MCF7 cells) was above 10 µM.
Consider `Cl.Clc1ccc2c(-c3ccccc3)c3cc4ccccc4cc3nc2c1`, for which the half-maximal inhibitory concentration (IC50) was 19600 nM with MCF7, 1650 nM against Estrogen receptor [1], 1980 nM at Estrogen receptor beta [2] and “Not Active” in data set [3]. In addition, the MNTC at 144 h in the data set “in vitro” (MCF7 cells) was above 100 µM.
`c1ccc2nc3ccccc3cc2c1`: in the data set “in vitro” (MCF7 cells), the MNTC at 144 h was above 10 µM.
For the molecule `Cl.Oc1cccc2c(-c3ccccc3)c3cc4ccccc4cc3nc12`, the inhibition result in data set [6] is “inactive”. In addition, the half-inhibitory concentration (IC50) is 1080 nM at Estrogen receptor [1], 939 nM against Estrogen receptor beta [2] and “Not Active” in [3]. It took 1330 nM to reach a half-maximal effect on Estrogen receptor [7] (EC50). Further, the MNTC at 144 h in the data set “in vitro” (MCF7 cells) is above 10 µM.
In turn, `COc1ccc2cc3nc4ccccc4c(-c4ccccc4)c3cc2c1` returned an MNTC at 144 h in “in vitro” (MCF7 cells) above 10 µM.
Take `Cl.Oc1ccc2cc3nc4ccccc4c(-c4ccccc4)c3cc2c1`: the inhibition result in data set [6] is “inactive”. Further, the fold change (FC) at Estrogen receptor beta [8] was found to be 6. Besides, the concentration for half-maximal inhibition (IC50) on Estrogen receptor [1] was 169 nM; on Estrogen receptor beta [2], 154 nM; in data set [3], “Not Active”. Also, on Estrogen receptor [7], the EC50 was found to be 1440 nM. Besides, the MNTC at 144 h in the data set “in vitro” (MCF7 cells) was above 10 µM. The inhibition entry at Estrogen receptor beta [9] is “Active”.
With `Cl.c1ccc(-c2c3ccccc3nc3cc4ccccc4cc23)cc1`, the concentration for half-maximal inhibition (IC50) in the data set with MCF7 is 4950 nM; against Estrogen receptor [1], 915 nM; at Estrogen receptor beta [2] it was 1690 nM; on Estrogen receptor [4], 9390 nM; in data set [3], “Not Active”. Also, in the data set “in vitro” (MCF7 cells), the MNTC at 144 h was above 10 µM.
For `N#Cc1c2ccccc2cc2c(-c3ccccc3)c3ccccc3nc12`, in the data set “in vitro” (MCF7 cells), the MNTC at 144 h was above 100 µM.
Turning to `Cl.Oc1ccc2c(-c3ccccc3)c3cc4ccccc4cc3nc2c1`, the inhibition entry in data set [6] is “inactive”. For the same molecule, the IC50 is 294 nM against Estrogen receptor [1], 306 nM on Estrogen receptor beta [2] and “Not Active” in [3]. Further, a half-maximal response at Estrogen receptor [7] (EC50) required 7400 nM. In the data set “in vitro” (MCF7 cells), this molecule displayed an MNTC at 144 h above 1 µM. The inhibition entry on Estrogen receptor beta [9] was “Active”.
As to `FC(F)(F)c1ccc(-c2c3ccc(C(F)(F)F)cc3nc3cc4ccc(C(F)(F)F)cc4cc23)cc1`, the MNTC at 144 h in the data set “in vitro” (MCF7 cells) is above 1 µM.
